System: 633275-114-R-J1-PDC complex spheroids, viability
Test: Anticancer human tumor 633275-114-R-J1-PDC patient-derived endometrial adenocarcinoma cell line growth inhibition [GQUAD]
Conditions: for IC50: curve of first compound; for viability, T/C: stronger effect = lower value
Summary of the method: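 Viability of tumor cells grown as complex spheroids with endothelial and stromal cells, exposed to drug combinations. Top concentration at or near clinical Cmax (else 10 microM), diluted in half-log increments.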

[1] = second compound 0.0316 µM, first compound 0.0316 µM
[2] = second compound 0.0316 µM, first compound 0.1 µM
[3] = second compound 0.0316 µM, first compound 0.316 µM
[4] = second compound 0.0316 µM, first compound 1 µM
[5] = second compound 0.0316 µM, first compound 3.16 µM
[6] = second compound 0.0316 µM, first compound 10 µM
[7] = second compound 0.1 µM, first compound 0.0316 µM
[8] = second compound 0.1 µM, first compound 0.1 µM
[9] = second compound 0.1 µM, first compound 0.316 µM
[10] = second compound 0.1 µM, first compound 1 µM
[11] = second compound 0.1 µM, first compound 3.16 µM
[12] = second compound 0.1 µM, first compound 10 µM
[13] = second compound 0.316 µM, first compound 0.0316 µM
[14] = second compound 0.316 µM, first compound 0.1 µM
[15] = second compound 0.316 µM, first compound 0.316 µM
[16] = second compound 0.316 µM, first compound 1 µM
[17] = second compound 0.316 µM, first compound 3.16 µM
[18] = second compound 0.316 µM, first compound 10 µM
[19] = second compound 1 µM, first compound 0.0316 µM
[20] = second compound 1 µM, first compound 0.1 µM
[21] = second compound 1 µM, first compound 0.316 µM
[22] = second compound 1 µM, first compound 1 µM
[23] = second compound 1 µM, first compound 3.16 µM
[24] = second compound 1 µM, first compound 10 µM
[25] = second compound 3.16 µM, first compound 0.0316 µM
[26] = second compound 3.16 µM, first compound 0.1 µM
[27] = second compound 3.16 µM, first compound 0.316 µM
[28] = second compound 3.16 µM, first compound 1 µM
[29] = second compound 3.16 µM, first compound 3.16 µM
[30] = second compound 3.16 µM, first compound 10 µM
[31] = second compound 10 µM, first compound 0.0316 µM
[32] = second compound 10 µM, first compound 0.1 µM
[33] = second compound 10 µM, first compound 0.316 µM
[34] = second compound 10 µM, first compound 1 µM
[35] = second compound 10 µM, first compound 3.16 µM
[36] = second compound 10 µM, first compound 10 µM
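Note: spheroids exposed to the agents for seven days.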
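Throughout, for viability, T/C: percent of DMSO vehicle control viability which is 100%.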

## CC1COCCN1c1cc(C2(O)CC3CCC(C2)O3)c2cnn(-c3ccn[nH]3)c2n1 (stereo not given) + Cc1[nH]c2ccc(F)cc2c1-c1nc2c3cccnc3c3ncccc3c2[nH]1
Second compound 0.0316 µM
  IC50: 99.9 nM
Second compound 0.1 µM
  IC50: 99.1 nM
Second compound 0.316 µM
  IC50: 90.4 nM
Second compound 1 µM
  IC50: 82.9 nM
Second compound 3.16 µM
  IC50: 47.6 nM
Second compound 10 µM
  IC50: 38.3 nM
[1]
  viability, T/C: 80.1%
[2]
  viability, T/C: 49.7%
[3]
  viability, T/C: 31.2%
[4]
  viability, T/C: 20.5%
[5]
  viability, T/C: 14.6%
[6]
  viability, T/C: 9.97%
[7]
  viability, T/C: 76.6%
[8]
  viability, T/C: 50.4%
[9]
  viability, T/C: 30%
[10]
  viability, T/C: 20.7%
[11]
  viability, T/C: 15.8%
[12]
  viability, T/C: 10.3%
[13]
  viability, T/C: 75.3%
[14]
  viability, T/C: 46.9%
[15]
  viability, T/C: 30.2%
[16]
  viability, T/C: 21.3%
[17]
  viability, T/C: 15.4%
[18]
  viability, T/C: 9.62%
[19]
  viability, T/C: 70.6%
[20]
  viability, T/C: 46.3%
[21]
  viability, T/C: 28.8%
[22]
  viability, T/C: 20.4%
[23]
  viability, T/C: 14.9%
[24]
  viability, T/C: 9.89%
[25]
  viability, T/C: 56.5%
[26]
  viability, T/C: 37.9%
[27]
  viability, T/C: 26.5%
[28]
  viability, T/C: 19.4%
[29]
  viability, T/C: 14.7%
[30]
  viability, T/C: 9.57%
[31]
  viability, T/C: 52.4%
[32]
  viability, T/C: 38%
[33]
  viability, T/C: 25.7%
[34]
  viability, T/C: 18.2%
[35]
  viability, T/C: 15.1%
[36]
  viability, T/C: 9.9%

## COc1cc(C2c3cc4c(cc3C(OC3OC5COC(C)OC5C(O)C3O)C3COC(=O)C23)OCO4)cc(OC)c1O (stereo not given) + CN(C)c1ccc(Nc2c3ccc(NC(=O)CCN4CCCC4)cc3nc3cc(NC(=O)CCN4CCCC4)ccc23)cc1
Second compound 0.0316 µM
  IC50: 295 nM
Second compound 0.1 µM
  IC50: 284 nM
Second compound 0.316 µM
  IC50: 296 nM
Second compound 1 µM
  IC50: 334 nM
Second compound 3.16 µM
  IC50: 171 nM
Second compound 10 µM
  IC50: < 31.6 nM
[1]
  viability, T/C: 81.6%
[2]
  viability, T/C: 64.5%
[3]
  viability, T/C: 47.3%
[4]
  viability, T/C: 40.9%
[5]
  viability, T/C: 33.7%
[6]
  viability, T/C: 30.3%
[7]
  viability, T/C: 80.2%
[8]
  viability, T/C: 64.8%
[9]
  viability, T/C: 44.7%
[10]
  viability, T/C: 41.4%
[11]
  viability, T/C: 32.6%
[12]
  viability, T/C: 26.9%
[13]
  viability, T/C: 84.3%
[14]
  viability, T/C: 69.7%
[15]
  viability, T/C: 48.4%
[16]
  viability, T/C: 36.8%
[17]
  viability, T/C: 38.4%
[18]
  viability, T/C: 29.8%
[19]
  viability, T/C: 75.4%
[20]
  viability, T/C: 59.5%
[21]
  viability, T/C: 52.1%
[22]
  viability, T/C: 38.7%
[23]
  viability, T/C: 36.7%
[24]
  viability, T/C: 26.7%
[25]
  viability, T/C: 71.7%
[26]
  viability, T/C: 53.7%
[27]
  viability, T/C: 43.6%
[28]
  viability, T/C: 36.4%
[29]
  viability, T/C: 37.5%
[30]
  viability, T/C: 26%
[31]
  viability, T/C: 25.5%
[32]
  viability, T/C: 19.9%
[33]
  viability, T/C: 18.5%
[34]
  viability, T/C: 17.5%
[35]
  viability, T/C: 16.3%
[36]
  viability, T/C: 10.7%

## COc1ncnc(C2CC2)c1-c1ncc2cnn(Cc3ccc(-c4nc(C(F)(F)F)cn4C(C)C)cc3)c2n1 + Cc1[nH]c2ccc(F)cc2c1-c1nc2c3cccnc3c3ncccc3c2[nH]1
Second compound 0.0316 µM
  IC50: > 10000 nM
Second compound 0.1 µM
  IC50: > 10000 nM
Second compound 0.316 µM
  IC50: > 10000 nM
Second compound 1 µM
  IC50: > 10000 nM
Second compound 3.16 µM
  IC50: > 10000 nM
Second compound 10 µM
  IC50: > 10000 nM
[1]
  viability, T/C: 95.6%
[2]
  viability, T/C: 91.5%
[3]
  viability, T/C: 100%
[4]
  viability, T/C: 93.2%
[5]
  viability, T/C: 91.4%
[6]
  viability, T/C: 89.8%
[7]
  viability, T/C: 98.2%
[8]
  viability, T/C: 102%
[9]
  viability, T/C: 89.5%
[10]
  viability, T/C: 96.7%
[11]
  viability, T/C: 92.1%
[12]
  viability, T/C: 87.7%
[13]
  viability, T/C: 93.4%
[14]
  viability, T/C: 87.9%
[15]
  viability, T/C: 87.3%
[16]
  viability, T/C: 82.3%
[17]
  viability, T/C: 99.7%
[18]
  viability, T/C: 91.8%
[19]
  viability, T/C: 86.7%
[20]
  viability, T/C: 90%
[21]
  viability, T/C: 93.2%
[22]
  viability, T/C: 81.3%
[23]
  viability, T/C: 93.5%
[24]
  viability, T/C: 87.1%
[25]
  viability, T/C: 70%
[26]
  viability, T/C: 78.4%
[27]
  viability, T/C: 64.1%
[28]
  viability, T/C: 62.7%
[29]
  viability, T/C: 73.2%
[30]
  viability, T/C: 67%
[31]
  viability, T/C: 59.8%
[32]
  viability, T/C: 63.1%
[33]
  viability, T/C: 56%
[34]
  viability, T/C: 60.5%
[35]
  viability, T/C: 62.3%
[36]
  viability, T/C: 60.3%

## CC1COCCN1c1cc(C2(O)CC3CCC(C2)O3)c2cnn(-c3ccn[nH]3)c2n1 (stereo not given) + Cc1cnc(CNC(=O)c2c(=O)c3ccc(N4CCCN(C)CC4)nc3n3c2sc2ccccc23)cn1
Second compound 0.0316 µM
  IC50: < 31.6 nM
Second compound 0.1 µM
  IC50: < 31.6 nM
Second compound 0.316 µM
  IC50: < 31.6 nM
Second compound 1 µM
  IC50: < 31.6 nM
Second compound 3.16 µM
  IC50: < 31.6 nM
Second compound 10 µM
  IC50: < 31.6 nM
[1]
  viability, T/C: 37.6%
[2]
  viability, T/C: 31.2%
[3]
  viability, T/C: 25%
[4]
  viability, T/C: 19.6%
[5]
  viability, T/C: 12.4%
[6]
  viability, T/C: 8.78%
[7]
  viability, T/C: 38.3%
[8]
  viability, T/C: 28.8%
[9]
  viability, T/C: 24.3%
[10]
  viability, T/C: 17.5%
[11]
  viability, T/C: 11.4%
[12]
  viability, T/C: 7.39%
[13]
  viability, T/C: 36.4%
[14]
  viability, T/C: 33%
[15]
  viability, T/C: 25%
[16]
  viability, T/C: 15.8%
[17]
  viability, T/C: 11.2%
[18]
  viability, T/C: 6.81%
[19]
  viability, T/C: 29.6%
[20]
  viability, T/C: 27.9%
[21]
  viability, T/C: 24.2%
[22]
  viability, T/C: 14.8%
[23]
  viability, T/C: 10.2%
[24]
  viability, T/C: 4.76%
[25]
  viability, T/C: 31.6%
[26]
  viability, T/C: 25.4%
[27]
  viability, T/C: 19.5%
[28]
  viability, T/C: 12.9%
[29]
  viability, T/C: 9.19%
[30]
  viability, T/C: 5.97%
[31]
  viability, T/C: 29.4%
[32]
  viability, T/C: 24.4%
[33]
  viability, T/C: 17%
[34]
  viability, T/C: 12.7%
[35]
  viability, T/C: 10.2%
[36]
  viability, T/C: 0.18%

## CC1COCCN1c1cc(C2(S(C)(=N)=O)CC2)nc(-c2ccnc3[nH]ccc23)n1 (stereo not given) + Cc1cnc(CNC(=O)c2c(=O)c3ccc(N4CCCN(C)CC4)nc3n3c2sc2ccccc23)cn1
Second compound 0.0316 µM
  IC50: 1600 nM
Second compound 0.1 µM
  IC50: < 31.6 nM
Second compound 0.316 µM
  IC50: < 31.6 nM
Second compound 1 µM
  IC50: < 31.6 nM
Second compound 3.16 µM
  IC50: < 31.6 nM
Second compound 10 µM
  IC50: < 31.6 nM
[1]
  viability, T/C: 67.5%
[2]
  viability, T/C: 64.5%
[3]
  viability, T/C: 59.1%
[4]
  viability, T/C: 49.6%
[5]
  viability, T/C: 50.2%
[6]
  viability, T/C: 29.7%
[7]
  viability, T/C: 51.9%
[8]
  viability, T/C: 47.3%
[9]
  viability, T/C: 49.1%
[10]
  viability, T/C: 41.5%
[11]
  viability, T/C: 44.7%
[12]
  viability, T/C: 27.4%
[13]
  viability, T/C: 47.5%
[14]
  viability, T/C: 46%
[15]
  viability, T/C: 43.4%
[16]
  viability, T/C: 41.1%
[17]
  viability, T/C: 35.7%
[18]
  viability, T/C: 24.4%
[19]
  viability, T/C: 37.8%
[20]
  viability, T/C: 40.3%
[21]
  viability, T/C: 35.7%
[22]
  viability, T/C: 37.8%
[23]
  viability, T/C: 39%
[24]
  viability, T/C: 27%
[25]
  viability, T/C: 33.5%
[26]
  viability, T/C: 34%
[27]
  viability, T/C: 32.2%
[28]
  viability, T/C: 30.6%
[29]
  viability, T/C: 31.1%
[30]
  viability, T/C: 22.7%
[31]
  viability, T/C: 33.8%
[32]
  viability, T/C: 28.8%
[33]
  viability, T/C: 31.5%
[34]
  viability, T/C: 29.1%
[35]
  viability, T/C: 33.6%
[36]
  viability, T/C: 23.9%
